Converted amounts (≈) assume the structure as drawn.
Columns and labels:
N. gonorrhoeae WHO G = experiment: Liquid broth MIC in Fastidious broth; conditions: Neisseria gonorrhoeae, read-out: Minimum Inhibitory Concentration, WHO G
N. gonorrhoeae WHO Q = experiment: Liquid broth MIC in Fastidious broth; conditions: Neisseria gonorrhoeae, read-out: Minimum Inhibitory Concentration, WHO Q
N. gonorrhoeae WHO M = experiment: Liquid broth MIC in Fastidious broth; conditions: Neisseria gonorrhoeae, read-out: Minimum Inhibitory Concentration, WHO M
N. gonorrhoeae FA1090 = experiment: Liquid broth MIC in Fastidious broth; conditions: Neisseria gonorrhoeae, FA1090, read-out: Minimum Inhibitory Concentration, FA 1090
N. gonorrhoeae MS11 = experiment: Liquid broth MIC in Fastidious broth; conditions: Neisseria gonorrhoeae, MS11, read-out: Minimum Inhibitory Concentration, MS11
[1] = biological target: T1, PBP1a from Acinetobacter baumannii (ATCC 19606) (Acinetobacter baumannii, UniProt A0ABX6CK30); experiment: Bocillin-FL fluorescence polarization competition binding, A. baumannii PBP1a; conditions: fluorescence polarization competition binding assay using Bocillin-FL; read-out: A. baumannii PBP1a Potency
T1 sequence (A0ABX6CK30 1-851): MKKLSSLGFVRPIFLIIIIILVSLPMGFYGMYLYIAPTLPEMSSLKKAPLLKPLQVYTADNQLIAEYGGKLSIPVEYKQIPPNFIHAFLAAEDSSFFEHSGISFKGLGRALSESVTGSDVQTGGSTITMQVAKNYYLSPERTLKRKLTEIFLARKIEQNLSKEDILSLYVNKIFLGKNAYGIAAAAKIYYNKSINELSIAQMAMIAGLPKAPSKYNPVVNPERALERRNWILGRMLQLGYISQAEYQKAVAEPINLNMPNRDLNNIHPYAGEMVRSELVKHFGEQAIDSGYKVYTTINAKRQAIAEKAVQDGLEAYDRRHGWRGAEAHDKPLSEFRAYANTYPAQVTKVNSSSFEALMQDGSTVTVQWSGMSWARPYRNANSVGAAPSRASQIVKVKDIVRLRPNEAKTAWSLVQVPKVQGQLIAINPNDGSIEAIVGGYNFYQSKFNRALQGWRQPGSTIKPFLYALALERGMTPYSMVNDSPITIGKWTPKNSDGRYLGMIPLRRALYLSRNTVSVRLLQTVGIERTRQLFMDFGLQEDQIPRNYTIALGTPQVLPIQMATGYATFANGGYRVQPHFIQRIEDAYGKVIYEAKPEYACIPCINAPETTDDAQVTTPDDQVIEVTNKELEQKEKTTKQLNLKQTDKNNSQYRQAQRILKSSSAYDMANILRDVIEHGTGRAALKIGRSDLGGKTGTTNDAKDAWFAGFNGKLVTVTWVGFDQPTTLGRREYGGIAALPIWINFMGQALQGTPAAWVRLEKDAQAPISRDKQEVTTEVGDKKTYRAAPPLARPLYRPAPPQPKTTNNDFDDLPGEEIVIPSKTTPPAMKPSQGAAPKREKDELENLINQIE
Summary of the method: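 Purified PBP was preincubated with inhibitor (E. coli PBP3 1.5 μM, 30 min; P. aeruginosa PBP3 0.75 μM, A. baumannii PBP3 0.2 μM and PBP1a 1 μM, 15 min), then Bocillin-FL (0.1 μM; 0.05 μM for PBP1a) added and FP read up to 60 min. EC50 = 50% loss of bound probe.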

N. gonorrhoeae WHO X = experiment: Liquid broth MIC in Fastidious broth; conditions: Neisseria gonorrhoeae, read-out: Minimum Inhibitory Concentration, WHO X
N. gonorrhoeae CDC-0197 = experiment: Liquid broth MIC in Fastidious broth; conditions: Neisseria gonorrhoeae, CDC0197, read-out: Minimum Inhibitory Concentration, CDC-0197

O=C(O)c1c(F)ccc2c1OB(O)[C@@H](NC(=O)C(NC(=O)N1CCN(Cc3ccc(O)c(O)c3Cl)C(=O)C1=O)c1cc(F)c(O)c(O)c1Cl)C2 (stereo partly drawn) [Example 292, (3R)-3-(2-(4-(2-chloro-3,4-dihydroxybenzyl)-2,3-dioxopiperazine-1-carboxamido)-2-(2-chloro-5-fluoro-3,4-dihydroxyphenyl)acetamido)-7-fluoro-2-hydroxy-3,4-dihydro-2H-benzo[e][1,2]oxaborinine-8-carboxylic acid]
MIC (N. gonorrhoeae WHO G): > 64 µg/mL | MIC (N. gonorrhoeae WHO Q): > 64 µg/mL | MIC (N. gonorrhoeae WHO M): > 64 µg/mL | MIC (N. gonorrhoeae FA1090): 16 to 32 µg/mL (≈ 21.6 to 43.3 µM) | MIC (N. gonorrhoeae MS11): > 64 µg/mL | IC50 [1]: > 250 µM | MIC (N. gonorrhoeae WHO X): > 64 µg/mL | MIC (N. gonorrhoeae CDC-0197): > 64 µg/mL

O=C(O)c1c(F)ccc2c1OB(O)[C@@H](NC(=O)C(NC(=O)N1CCN(C3CCN(C(=O)c4cccc(O)c4)CC3)C(=O)C1=O)c1cc(F)c(O)c(O)c1Cl)C2 (stereo partly drawn) [Example 293, (3R)-3-(2-(2-chloro-5-fluoro-3,4-dihydroxyphenyl)-2-(4-(1-(3-hydroxybenzoyl)piperidin-4-yl)-2,3-dioxopiperazine-1-carboxamido)acetamido)-7-fluoro-2-hydroxy-3,4-dihydro-2H-benzo[e][1,2]oxaborinine-8-carboxylic acid]
MIC (N. gonorrhoeae WHO G): 16 to 32 µg/mL (≈ 20.4 to 40.7 µM) | MIC (N. gonorrhoeae WHO Q): > 64 µg/mL | MIC (N. gonorrhoeae WHO M): 16 to 32 µg/mL (≈ 20.4 to 40.7 µM) | MIC (N. gonorrhoeae FA1090): 1 to 2 µg/mL (≈ 1.27 to 2.54 µM) | MIC (N. gonorrhoeae MS11): 16 to 32 µg/mL (≈ 20.4 to 40.7 µM) | IC50 [1]: > 250 µM | MIC (N. gonorrhoeae WHO X): > 64 µg/mL | MIC (N. gonorrhoeae CDC-0197): > 64 µg/mL

O=C(NCCCN1CCN(C(=O)N[C@@H](C(=O)N[C@H]2Cc3ccc(F)c(C(=O)O)c3OB2O)c2cc(F)c(O)c(O)c2Cl)C(=O)C1=O)c1ccncc1 [Example 294, (R)-3-((R)-2-(2-chloro-5-fluoro-3,4-dihydroxyphenyl)-2-(4-(3-(isonicotinamido)propyl)-2,3-dioxopiperazine-1-carboxamido)acetamido)-7-fluoro-2-hydroxy-3,4-dihydro-2H-benzo[e][1,2]oxaborinine-8-carboxylic acid]
MIC (N. gonorrhoeae WHO G): 16 to 32 µg/mL (≈ 21.5 to 43 µM) | MIC (N. gonorrhoeae WHO Q): > 64 µg/mL | MIC (N. gonorrhoeae WHO M): 16 to 32 µg/mL (≈ 21.5 to 43 µM) | MIC (N. gonorrhoeae FA1090): 1 to 2 µg/mL (≈ 1.34 to 2.69 µM) | MIC (N. gonorrhoeae MS11): 16 to 32 µg/mL (≈ 21.5 to 43 µM) | IC50 [1]: > 250 µM | MIC (N. gonorrhoeae WHO X): > 64 µg/mL | MIC (N. gonorrhoeae CDC-0197): > 64 µg/mL

O=C(NCCCN1CCN(C(=O)NC(C(=O)N[C@H]2Cc3ccc(F)c(C(=O)O)c3OB2O)c2cc(F)c(O)c(O)c2Cl)C(=O)C1=O)c1ccncc1Cl (stereo partly drawn) [Example 295, (3R)-3-(2-(2-chloro-5-fluoro-3,4-dihydroxyphenyl)-2-(4-(3-(3-chloroisonicotinamido)propyl)-2,3-dioxopiperazine-1-carboxamido)acetamido)-7-fluoro-2-hydroxy-3,4-dihydro-2H-benzo[e][1,2]oxaborinine-8-carboxylic acid]
MIC (N. gonorrhoeae WHO G): 16 to 32 µg/mL (≈ 20.5 to 41.1 µM) | MIC (N. gonorrhoeae WHO Q): > 64 µg/mL | MIC (N. gonorrhoeae WHO M): 16 to 32 µg/mL (≈ 20.5 to 41.1 µM) | MIC (N. gonorrhoeae FA1090): 1 to 2 µg/mL (≈ 1.28 to 2.57 µM) | MIC (N. gonorrhoeae MS11): 16 to 32 µg/mL (≈ 20.5 to 41.1 µM) | IC50 [1]: > 250 µM | MIC (N. gonorrhoeae WHO X): > 64 µg/mL | MIC (N. gonorrhoeae CDC-0197): > 64 µg/mL

O=C(NCCCN1CCN(C(=O)N[C@@H](C(=O)N[C@H]2Cc3ccc(F)c(C(=O)O)c3OB2O)c2cc(F)c(O)c(O)c2Cl)C(=O)C1=O)c1ccncc1O [Example 296, (R)-3-((R)-2-(2-chloro-5-fluoro-3,4-dihydroxyphenyl)-2-(4-(3-(3-hydroxyisonicotinamido)propyl)-2,3-dioxopiperazine-1-carboxamido)acetamido)-7-fluoro-2-hydroxy-3,4-dihydro-2H-benzo[e][1,2]oxaborinine-8-carboxylic acid]
MIC (N. gonorrhoeae WHO G): 16 to 32 µg/mL (≈ 21 to 42.1 µM) | MIC (N. gonorrhoeae WHO Q): > 64 µg/mL | MIC (N. gonorrhoeae WHO M): 16 to 32 µg/mL (≈ 21 to 42.1 µM) | MIC (N. gonorrhoeae FA1090): 1 to 2 µg/mL (≈ 1.31 to 2.63 µM) | MIC (N. gonorrhoeae MS11): 16 to 32 µg/mL (≈ 21 to 42.1 µM) | IC50 [1]: > 250 µM | MIC (N. gonorrhoeae WHO X): > 64 µg/mL | MIC (N. gonorrhoeae CDC-0197): > 64 µg/mL

Cc1cnccc1C(=O)NCCCN1CCN(C(=O)NC(C(=O)N[C@H]2Cc3ccc(F)c(C(=O)O)c3OB2O)c2cc(F)c(O)c(O)c2Cl)C(=O)C1=O (stereo partly drawn) [Example 297, (3R)-3-(2-(2-chloro-5-fluoro-3,4-dihydroxyphenyl)-2-(4-(3-(3-methylisonicotinamido)propyl)-2,3-dioxopiperazine-1-carboxamido)acetamido)-7-fluoro-2-hydroxy-3,4-dihydro-2H-benzo[e][1,2]oxaborinine-8-carboxylic acid]
MIC (N. gonorrhoeae WHO G): 16 to 32 µg/mL (≈ 21.1 to 42.2 µM) | MIC (N. gonorrhoeae WHO Q): > 64 µg/mL | MIC (N. gonorrhoeae WHO M): 16 to 32 µg/mL (≈ 21.1 to 42.2 µM) | MIC (N. gonorrhoeae FA1090): 1 to 2 µg/mL (≈ 1.32 to 2.64 µM) | MIC (N. gonorrhoeae MS11): 16 to 32 µg/mL (≈ 21.1 to 42.2 µM) | IC50 [1]: > 250 µM | MIC (N. gonorrhoeae WHO X): > 64 µg/mL | MIC (N. gonorrhoeae CDC-0197): > 64 µg/mL

Cc1cc(C(=O)NCCCN2CCN(C(=O)N[C@@H](C(=O)N[C@H]3Cc4ccc(F)c(C(=O)O)c4OB3O)c3cc(F)c(O)c(O)c3Cl)C(=O)C2=O)ccn1 [Example 298, (R)-3-((R)-2-(2-chloro-5-fluoro-3,4-dihydroxyphenyl)-2-(4-(3-(2-methylisonicotinamido)propyl)-2,3-dioxopiperazine-1-carboxamido)acetamido)-7-fluoro-2-hydroxy-3,4-dihydro-2H-benzo[e][1,2]oxaborinine-8-carboxylic acid]
MIC (N. gonorrhoeae WHO G): 16 to 32 µg/mL (≈ 21.1 to 42.2 µM) | MIC (N. gonorrhoeae WHO Q): > 64 µg/mL | MIC (N. gonorrhoeae WHO M): 16 to 32 µg/mL (≈ 21.1 to 42.2 µM) | MIC (N. gonorrhoeae FA1090): 1 to 2 µg/mL (≈ 1.32 to 2.64 µM) | MIC (N. gonorrhoeae MS11): 16 to 32 µg/mL (≈ 21.1 to 42.2 µM) | IC50 [1]: > 250 µM | MIC (N. gonorrhoeae WHO X): > 64 µg/mL | MIC (N. gonorrhoeae CDC-0197): > 64 µg/mL

O=C(NCCCN1CCN(C(=O)N[C@H](C(=O)N[C@H]2Cc3ccc(F)c(C(=O)O)c3OB2O)c2cc(F)c(O)c(O)c2Cl)C(=O)C1=O)c1ccnc(F)c1F [Example 299, (R)-3-((S)-2-(2-chloro-5-fluoro-3,4-dihydroxyphenyl)-2-(4-(3-(2,3-difluoroisonicotinamido)propyl)-2,3-dioxopiperazine-1-carboxamido)acetamido)-7-fluoro-2-hydroxy-3,4-dihydro-2H-benzo[e][1,2]oxaborinine-8-carboxylic acid]
MIC (N. gonorrhoeae WHO G): > 64 µg/mL | MIC (N. gonorrhoeae WHO Q): > 64 µg/mL | MIC (N. gonorrhoeae WHO M): > 64 µg/mL | MIC (N. gonorrhoeae FA1090): 16 to 32 µg/mL (≈ 20.5 to 41 µM) | MIC (N. gonorrhoeae MS11): > 64 µg/mL | IC50 [1]: > 250 µM | MIC (N. gonorrhoeae WHO X): > 64 µg/mL | MIC (N. gonorrhoeae CDC-0197): > 64 µg/mL

O=C(NCCCN1CCN(C(=O)N[C@@H](C(=O)N[C@H]2Cc3ccc(F)c(C(=O)O)c3OB2O)c2cc(F)c(O)c(O)c2Cl)C(=O)C1=O)c1ccnc(F)c1F [Example 300, (R)-3-((R)-2-(2-chloro-5-fluoro-3,4-dihydroxyphenyl)-2-(4-(3-(2,3-difluoroisonicotinamido)propyl)-2,3-dioxopiperazine-1-carboxamido)acetamido)-7-fluoro-2-hydroxy-3,4-dihydro-2H-benzo[e][1,2]oxaborinine-8-carboxylic acid]
MIC (N. gonorrhoeae WHO G): 16 to 32 µg/mL (≈ 20.5 to 41 µM) | MIC (N. gonorrhoeae WHO Q): > 64 µg/mL | MIC (N. gonorrhoeae WHO M): 16 to 32 µg/mL (≈ 20.5 to 41 µM) | MIC (N. gonorrhoeae FA1090): 4 to 8 µg/mL (≈ 5.12 to 10.2 µM) | MIC (N. gonorrhoeae MS11): 16 to 32 µg/mL (≈ 20.5 to 41 µM) | IC50 [1]: > 250 µM | MIC (N. gonorrhoeae WHO X): > 64 µg/mL | MIC (N. gonorrhoeae CDC-0197): > 64 µg/mL

Cc1cc(C(=O)NCCCN2CCN(C(=O)NC(C(=O)N[C@H]3Cc4ccc(F)c(C(=O)O)c4OB3O)c3cc(F)c(O)c(O)c3Cl)C(=O)C2=O)c(F)cn1 (stereo partly drawn) [Example 301, (3R)-3-(2-(2-chloro-5-fluoro-3,4-dihydroxyphenyl)-2-(4-(3-(5-fluoro-2-methylisonicotinamido)propyl)-2,3-dioxopiperazine-1-carboxamido)acetamido)-7-fluoro-2-hydroxy-3,4-dihydro-2H-benzo[e][1,2]oxaborinine-8-carboxylic acid]
MIC (N. gonorrhoeae WHO G): 16 to 32 µg/mL (≈ 20.6 to 41.2 µM) | MIC (N. gonorrhoeae WHO Q): > 64 µg/mL | MIC (N. gonorrhoeae WHO M): 16 to 32 µg/mL (≈ 20.6 to 41.2 µM) | MIC (N. gonorrhoeae FA1090): 4 to 8 µg/mL (≈ 5.15 to 10.3 µM) | MIC (N. gonorrhoeae MS11): 16 to 32 µg/mL (≈ 20.6 to 41.2 µM) | IC50 [1]: > 250 µM | MIC (N. gonorrhoeae WHO X): > 64 µg/mL | MIC (N. gonorrhoeae CDC-0197): > 64 µg/mL
